Data on 29 molecules can be found in patent publication US11446287B2, “Compounds and methods for EP300 or CBP modulation and indications therefor” (Opna Immuno-Oncology SA, priority 2019, dated 2022).

In the assay the target is T1, Recombinant human CBP containing the bromodomain (CBP-BD (1043-1159)) (Homo sapiens, UniProt Q92793).
T1 construct: Recombinant human CBP bromodomain (CBP-BD (1043-1159)); made in house; host or cells: E. coli BL21-CodonPlus (DE3), modified pET vector
The assay is described as follows: CBP Alphascreen binding assay. To be noted: read-out: CREBBP (CBP) IC50. Summed up: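 Buffer: 50 mM HEPES pH 7.5, 50 mM NaCl, 0.01% BSA, 0.01% Triton X-100, 2 mM DTT. The signal was normalised to plate controls and fitted with a four-parameter curve to give IC50.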
For orientation: Bead proximity is the source of the signal in Alpha formats.

T1 sequence (Q92793 1081-1197): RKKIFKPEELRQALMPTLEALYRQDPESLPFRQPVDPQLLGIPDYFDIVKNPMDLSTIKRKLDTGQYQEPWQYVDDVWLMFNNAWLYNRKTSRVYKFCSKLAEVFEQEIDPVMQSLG

For `COc1ncc(-n2cc(-c3ccc(C(=O)O)cc3OC(F)(F)F)c3cc(-c4c(C)noc4C)cnc32)cn1` [P-0392, 4-(5-(3,5-dimethylisoxazol-4-yl)-1-(2-methoxypyrimidin-5-yl)-1H-pyrrolo[2,3-b]pyridin-3-yl)-3-(trifluoromethoxy)benzoic acid], the half-inhibitory concentration (IC50) (as a rule, the point on the concentration scale where inhibition reaches its midpoint) lay within 0.1 to 1000 nM.
Next, `Cc1noc(C)c1-c1cnc2c(c1)c(-c1c(Cl)cc(C(=O)O)cc1OC(C)C)cn2-c1cnc(C2CC2)nc1` [P-0393, 3-chloro-4-(1-(2-cyclopropylpyrimidin-5-yl)-5-(3,5-dimethylisoxazol-4-yl)-1H-pyrrolo[2,3-b]pyridin-3-yl)-5-isopropoxybenzoic acid]: 0.1 to 1000 nM; `Cc1noc(C)c1-c1cnc2c(c1)c(-c1c(F)cc(C(=O)O)cc1OC1CC1)cn2C(C1CC1)C1CC1` [P-0394, 3-cyclopropoxy-4-(1-(dicyclopropylmethyl)-5-(3,5-dimethylisoxazol-4-yl)-1H-pyrrolo[2,3-b]pyridin-3-yl)-5-fluorobenzoic acid]: 0.1 to 1000 nM.
Consider `Cc1noc(C)c1-c1cnc2c(c1)c(-c1c(Cl)cc(C(=O)O)cc1OC(F)(F)F)cn2-c1ncccc1C#N` [P-0395, 3-chloro-4-(1-(3-cyanopyridin-2-yl)-5-(3,5-dimethylisoxazol-4-yl)-1H-pyrrolo[2,3-b]pyridin-3-yl)-5-(trifluoromethoxy)benzoic acid], for which the IC50 was in the range of 0.1 to 1000 nM.
Take `Cc1noc(C)c1-c1cnc2c(c1)c(-c1c(Cl)cc(C(=O)O)cc1OC1CCC1)cn2-c1ncccc1C#N` [P-0396, 3-chloro-4-(1-(3-cyanopyridin-2-yl)-5-(3,5-dimethylisoxazol-4-yl)-1H-pyrrolo[2,3-b]pyridin-3-yl)-5-cyclobutoxybenzoic acid]: the IC50 lay within 0.1 to 1000 nM.
Regarding `Cc1noc(C)c1-c1cnc2c(c1)c(-c1c(F)cc(C(=O)O)cc1OC1CC1)cn2C1CCOCC1` [P-0397, 3-cyclopropoxy-4-(5-(3,5-dimethylisoxazol-4-yl)-1-(tetrahydro-2H-pyran-4-yl)-1H-pyrrolo[2,3-b]pyridin-3-yl)-5-fluorobenzoic acid], the IC50 lay in the range of 0.1 to 1000 nM.
On to `CCOc1nc(C(=O)O)c(Cl)cc1-c1cn(C2CCOCC2)c2ncc(-c3c(C)noc3C)cc12` [P-0398, 3-chloro-5-(5-(3,5-dimethylisoxazol-4-yl)-1-(tetrahydro-2H-pyran-4-yl)-1H-pyrrolo[2,3-b]pyridin-3-yl)-6-ethoxypicolinic acid], for which the IC50 fell in the range of 0.1 to 1000 nM.
Take `Cc1noc(C)c1-c1cnc2c(c1)c(-c1ccc(C(=O)O)cc1OC(F)(F)F)cn2-c1ccc(=O)n(C)c1` [P-0399, 4-(5-(3,5-dimethylisoxazol-4-yl)-1-(1-methyl-6-oxo-1,6-dihydropyridin-3-yl)-1H-pyrrolo[2,3-b]pyridin-3-yl)-3-(trifluoromethoxy)benzoic acid]: the half-inhibitory concentration (IC50) is 0.1 to 1000 nM.
Regarding `CCc1noc(C)c1-c1cnc2c(c1)c(-c1ccc(C(=O)O)cc1OC(F)(F)F)cn2C1CCOCC1` [P-0400, 4-(5-(3-ethyl-5-methylisoxazol-4-yl)-1-(tetrahydro-2H-pyran-4-yl)-1H-pyrrolo[2,3-b]pyridin-3-yl)-3-(trifluoromethoxy)benzoic acid], the IC50 lay within 0.1 to 1000 nM.
With `CCc1onc(C)c1-c1cnc2c(c1)c(-c1ccc(C(=O)O)cc1OC(F)(F)F)cn2C1CCOCC1` [P-0401, 4-(5-(5-ethyl-3-methylisoxazol-4-yl)-1-(tetrahydro-2H-pyran-4-yl)-1H-pyrrolo[2,3-b]pyridin-3-yl)-3-(trifluoromethoxy)benzoic acid], the 50% inhibitory concentration (IC50) lay within 0.1 to 1000 nM.
Consider `Cc1cc(C(=O)O)cc(OC(C)C)c1-c1cn(C2CCOCC2)c2ncc(-c3c(C)noc3C)cc12` [P-0402, 4-(5-(3,5-dimethylisoxazol-4-yl)-1-(tetrahydro-2H-pyran-4-yl)-1H-pyrrolo[2,3-b]pyridin-3-yl)-3-isopropoxy-5-methylbenzoic acid], for which the half-inhibitory concentration (IC50) fell in the range of 0.1 to 1000 nM.
Next, `Cc1noc(C)c1-c1cnc2c(c1)c(-c1ccc(C(=O)O)cc1OC(C)C)cn2C1(C)CCOCC1` [P-0403, 4-(5-(3,5-dimethylisoxazol-4-yl)-1-(4-methyltetrahydro-2H-pyran-4-yl)-1H-pyrrolo[2,3-b]pyridin-3-yl)-3-isopropoxybenzoic acid]: 0.1 to 1000 nM; `Cc1noc(C)c1-c1cnc2c(c1)c(-c1c(Cl)cc(C(=O)O)cc1OC(C)C)cn2C1(C)CCOCC1` [P-0404, 3-chloro-4-(5-(3,5-dimethylisoxazol-4-yl)-1-(4-methyltetrahydro-2H-pyran-4-yl)-1H-pyrrolo[2,3-b]pyridin-3-yl)-5-isopropoxybenzoic acid]: 0.1 to 1000 nM.
As to `CCOc1nc(C(=O)O)ccc1-c1cn(C2(C)CCOCC2)c2ncc(-c3c(C)noc3C)cc12` [P-0405, 5-(5-(3,5-dimethylisoxazol-4-yl)-1-(4-methyltetrahydro-2H-pyran-4-yl)-1H-pyrrolo[2,3-b]pyridin-3-yl)-6-ethoxypicolinic acid], the half-inhibitory concentration (IC50) is 0.1 to 1000 nM.
On to `CCOc1nc(C(=O)O)c(Cl)cc1-c1cn([C@H]2CCOC2)c2ncc(-c3c(C)noc3C)cc12` [P-0406, (S)-3-chloro-5-(5-(3,5-dimethylisoxazol-4-yl)-1-(tetrahydrofuran-3-yl)-1H-pyrrolo[2,3-b]pyridin-3-yl)-6-ethoxypicolinic acid], for which the IC50 lay within 0.1 to 1000 nM.
As to `Cc1noc(C)c1-c1cnc2c(c1)c(-c1ccc(C(=O)O)cc1OC(C)C)cn2C1(C)CCOC1` (centres unmarked) [P-0407, 4-(5-(3,5-dimethylisoxazol-4-yl)-1-(3-methyltetrahydrofuran-3-yl)-1H-pyrrolo[2,3-b]pyridin-3-yl)-3-isopropoxybenzoic acid], the IC50 fell in the range of 0.1 to 1000 nM.
Next, `Cc1noc(C)c1-c1cnc2c(c1)c(-c1c(Cl)cc(C(=O)O)cc1OC(C)C)cn2C1(C)CCOC1` (centres unmarked) [P-0408, 3-chloro-4-(5-(3,5-dimethylisoxazol-4-yl)-1-(3-methyltetrahydrofuran-3-yl)-1H-pyrrolo[2,3-b]pyridin-3-yl)-5-isopropoxybenzoic acid]: 0.1 to 1000 nM; `Cc1noc(C)c1-c1cnc2c(c1)c(-c1c(Cl)cc(C(=O)O)cc1OC1CC1)cn2-c1ncccc1C#N` [P-0409, 3-chloro-4-(1-(3-cyanopyridin-2-yl)-5-(3,5-dimethylisoxazol-4-yl)-1H-pyrrolo[2,3-b]pyridin-3-yl)-5-cyclopropoxybenzoic acid]: 0.1 to 1000 nM; `Cc1noc(C)c1-c1cnc2c(c1)c(-c1c(F)cc(C(=O)O)cc1OC1CCC1)cn2C1CCOCC1` [P-0410, 3-cyclobutoxy-4-(5-(3,5-dimethylisoxazol-4-yl)-1-(tetrahydro-2H-pyran-4-yl)-1H-pyrrolo[2,3-b]pyridin-3-yl)-5-fluorobenzoic acid]: 0.1 to 1000 nM.
Turning to `CCOc1nc(C(=O)O)cc(C)c1-c1cn(C2CCOCC2)c2ncc(-c3c(C)noc3C)cc12` [P-0411, 5-(5-(3,5-dimethylisoxazol-4-yl)-1-(tetrahydro-2H-pyran-4-yl)-1H-pyrrolo[2,3-b]pyridin-3-yl)-6-ethoxy-4-methylpicolinic acid], the 50% inhibitory concentration (IC50) fell in the range of 0.1 to 1000 nM.
On to `CCOc1nc(C(=O)O)cc(C)c1-c1cn(-c2ccc(F)cc2F)c2ncc(-c3c(C)noc3C)cc12` [P-0412, 5-(1-(2,4-difluorophenyl)-5-(3,5-dimethylisoxazol-4-yl)-1H-pyrrolo[2,3-b]pyridin-3-yl)-6-ethoxy-4-methylpicolinic acid], for which the concentration for half-maximal inhibition (IC50) lay within 0.1 to 1000 nM.
Next, `Cc1nnn(C)c1-c1cnc2c(c1)c(-c1ccc(C(=O)O)cc1OC1CC1)cn2C1CCOCC1` [P-0413, 3-cyclopropoxy-4-(5-(1,4-dimethyl-1H-1,2,3-triazol-5-yl)-1-(tetrahydro-2H-pyran-4-yl)-1H-pyrrolo[2,3-b]pyridin-3-yl)benzoic acid]: 0.1 to 1000 nM.
As to `CCOc1cc(C(=O)O)nc(OCC)c1-c1cn(-c2ccccc2F)c2ncc(-c3c(C)noc3C)cc12` [P-0414, 5-(5-(3,5-dimethylisoxazol-4-yl)-1-(2-fluorophenyl)-1H-pyrrolo[2,3-b]pyridin-3-yl)-4,6-diethoxypicolinic acid], the half-inhibitory concentration (IC50) lay within 0.1 to 1000 nM.
The value for `CCOc1cc(C(=O)O)nc(OCC)c1-c1cn([C@@H](C)c2ccccn2)c2ncc(-c3c(C)noc3C)cc12` [P-0415, (S)-5-(5-(3,5-dimethylisoxazol-4-yl)-1-(1-(pyridin-2-yl)ethyl)-1H-pyrrolo[2,3-b]pyridin-3-yl)-4,6-diethoxypicolinic acid] was 0.1 to 1000 nM.
Take `CCOc1nc(C(=O)O)c(C)cc1-c1cn(C(C2CC2)C2CC2)c2ncc(-c3c(C)noc3C)cc12` [P-0416, 5-(1-(dicyclopropylmethyl)-5-(3,5-dimethylisoxazol-4-yl)-1H-pyrrolo[2,3-b]pyridin-3-yl)-6-ethoxy-3-methylpicolinic acid]: the half-inhibitory concentration (IC50) lay in the range of 0.1 to 1000 nM.
The value for `CCOc1nc(C(=O)O)cc(C)c1-c1cn(C(C2CC2)C2CC2)c2ncc(-c3c(C)noc3C)cc12` [P-0417, 5-(1-(dicyclopropylmethyl)-5-(3,5-dimethylisoxazol-4-yl)-1H-pyrrolo[2,3-b]pyridin-3-yl)-6-ethoxy-4-methylpicolinic acid] was 0.1 to 1000 nM.
As to `Cc1noc(C)c1-c1cnc2c(c1)c(-c1ccnc(C(=O)O)c1C)cn2C(C1CC1)C1CC1` [P-0418, 4-(1-(dicyclopropylmethyl)-5-(3,5-dimethylisoxazol-4-yl)-1H-pyrrolo[2,3-b]pyridin-3-yl)-3-methylpicolinic acid], the IC50 was 0.1 to 1000 nM.
As to `Cc1noc(C)c1-c1cnc2c(c1)c(-c1ccnc(C(=O)O)c1C)cn2C1CCOCC1` [P-0419, 4-(5-(3,5-dimethylisoxazol-4-yl)-1-(tetrahydro-2H-pyran-4-yl)-1H-pyrrolo[2,3-b]pyridin-3-yl)-3-methylpicolinic acid], the half-maximal inhibitory concentration (IC50) is 0.1 to 1000 nM.
On to `CCOc1cc(C(=O)O)nc(OCC)c1-c1cn(C(C2CC2)C2CC2)c2ncc(-c3c(C)noc3C)cc12` [P-0420, 5-(1-(dicyclopropylmethyl)-5-(3,5-dimethylisoxazol-4-yl)-1H-pyrrolo[2,3-b]pyridin-3-yl)-4,6-diethoxypicolinic acid], for which the half-inhibitory concentration (IC50) was 0.1 to 1000 nM.
